Measured values reported in patent US6083964A, “Optical resolution of racemic aminoalkylpyridine anticonvulsants and (+) aminoalkylpyridine enantiomers as highly potent orally effective anticonvulsant drugs and excitatory amino acid antagonists” (K and K Biosciences, Inc., priority 1999, dated 2000).
Where two headings read alike, the source gives them in different places.

How the values were obtained:
[1] = test system: maximal electroshock seizure (MES) in rats; experiment: Maximal electroshock seizure (MES) test, rats, p.o.; type: in vivo, rat (Sprague-Dawley); settings: for ED50: Rattus norvegicus, po, MES test, read-out: ED50; for % protection (lowest and highest) during 4 hour period: 4 rats per point
Text: (§1) The (+) AAP enantiomers obtained by optical resolution of racemic AAPs and the resulting highly orally effective anticonvulsant compositions of this invention are useful in the treatment of convulsive disorders. […] A series of (+) AAP enantiomers and (-) AAP enantiomers of this invention has been evaluated for anticonvulsant activity by the intraperitoneal (i.p.) and by the oral (p.o.) route using two standard seizure models in the mouse and in the rat, the maximal electroshock seizure (MES) test and the subcutaneous pentylenetetrazol (Metrazole) seizure threshold (scMet) test. […] The following Table 2 presents the results of these anticonvulsant tests with respect to several (+) and (-) AAP enantiomeric compounds derived from optical resolution of racemic AAPs of the present invention. This Table 2 identifies the specific compounds tested by their chemical name and provides the test model, the route of administration, the animal species used, and the anticonvulsant activity and toxicity in terms of ED50 and TD50 values, (the median effective and toxic dose respectively), when intraperitoneally administered to mice, and when orally administered to rats. The Maximal Electroshock Seizure Test (MES): Maximal electroshock seizures are elicited with a 60 Hz alternating current of 50 mA intensity in mice and about 150 mA intensity in rats (5-7 times that necessary to elicit minimal electroshock seizures), delivered for 0.2 sec via corneal electrodes. A drop of 0.9% saline is instilled in the eye prior to application of the electrodes in order to […]. Abolition of the hind limb tonic extension component of the seizure is defined as protection and results are expressed as number of animals protected/number of animals tested. The Subcutaneous Pentylenetetrazol (Metrazole) Seizure Threshold Test (scMet): A 0.5% solution of 85 mg/kg of pentylenetetrazol is administered subcutaneously in the posterior midline 30 minutes or 4 hours after drug administration to the animal. […] This species will be the subject of the complete anticonvulsant quantification test evaluation as described above, but after oral (gavage) administration of the candidate compound.

[2] = Neurological deficit, positional sense test and gait and stance test, rats, p.o.; design: species or system rat (Sprague-Dawley); settings: rat, in vivo, po
Method: Neurotoxicity is determined by the rotorod ataxia test in mice and by the positional sense test and gait and stance test in the rat. The following Table 2 presents the results of these anticonvulsant tests with respect to several (+) and (-) AAP enantiomeric compounds derived from optical resolution of racemic AAPs of the present invention. This Table 2 identifies the specific compounds tested by their chemical name and provides the test model, the route of administration, the animal species used, and the anticonvulsant activity and toxicity in terms of ED50 and TD50 values, (the median effective and toxic dose respectively), when intraperitoneally administered to mice, and when orally administered to rats. […] This species will be the subject of the complete anticonvulsant quantification test evaluation as described above, but after oral (gavage) administration of the candidate compound. […] Neurological deficit in rats is examined by the positional sense test and gait and stance test. […] Inability to do so rapidly indicates a neurologic deficit. In the gait and stance test, a neurologic deficit is indicated by a circular or a zigzag gait, ataxia, abnormal spread of the legs, abnormal body posture, tremor, hyperactivity, lack of exploratory behavior, somnolence, stupor, or catalepsy.

[3] = test system: maximal electroshock seizure (MES) in mice; experiment: Maximal electroshock seizure (MES) test, mice, i.p.; type: in vivo, mouse (male Carworth Farms #1); settings: for % protection: 100 mg/kg; for % protection / P.I. (protective index, TD50/ED50): MES; for ED50: MES test
Text: as §1, with “rats. In mice, i.p.: All compounds are emulsified in 0.5% methylcellulose. The solvent has been tested for anticonvulsant and toxic effects and found to introduce no significant bias into the testing of anticonvulsant activity. The compounds are administered intraperitoneally in a volume of 0.01 ml/gm to male Carworth Farms #1 mice weighing about 20 gm. All compounds are tested at least at three dose levels (30, 100 and 300 mg/kg) at 30 minutes and 4 hours after their administration.” for “rats.”, “Anticonvulsant Quantification in Mice i.p.: The ED50 values are determined in” for “This species will be”, “MES, scMet and rotorod ataxia test. To determine the ED50 values, five logarithmically spaced doses” for “subject”, “the” for “the complete anticonvulsant quantification”, “compound are administered to animals (male Carworth Farms #1 mice) in groups of eight, to cover 0-100% protection, and the dose required to protect 50%” for “evaluation as described above, but after oral (gavage) administration”, “animals (ED50) together with its 95% confidence limits, is determined graphically.” for “candidate compound.”

[4] = test system: neurotoxicity (rotorod ataxia) in mice; experiment: Neurotoxicity, rotorod ataxia test, mice, i.p.; design: species or system mouse (male Carworth Farms #1); settings: mouse, in vivo, ip
Method: Neurotoxicity is determined by the rotorod ataxia test in mice and by the positional sense test and gait and stance test in the rat. The following Table 2 presents the results of these anticonvulsant tests with respect to several (+) and (-) AAP enantiomeric compounds derived from optical resolution of racemic AAPs of the present invention. This Table 2 identifies the specific compounds tested by their chemical name and provides the test model, the route of administration, the animal species used, and the anticonvulsant activity and toxicity in terms of ED50 and TD50 values, (the median effective and toxic dose respectively), when intraperitoneally administered to mice, and when orally administered to rats. In mice, i.p.: All compounds are emulsified in 0.5% methylcellulose. The solvent has been tested for anticonvulsant and toxic effects and found to introduce no significant bias into the testing of anticonvulsant activity. The compounds are administered intraperitoneally in a volume of 0.01 ml/gm to male Carworth Farms #1 mice weighing about 20 gm. All compounds are tested at least at three dose levels (30, 100 and 300 mg/kg) at 30 minutes and 4 hours after their administration. Neurotoxicity is evaluated in mice by the rotorod ataxia test. The animal is placed on a wooden rod of 1 and 1/8 diameter rotating at 6 rpm. Normal mice can remain on a rod rotating at this speed indefinitely. […] Anticonvulsant Quantification in Mice i.p.: The ED50 values are determined in the MES, scMet and rotorod ataxia test. To determine the ED50 values, five logarithmically spaced doses of the test compound are administered to animals (male Carworth Farms #1 mice) in groups of eight, to cover 0-100% protection, and the dose required to protect 50% of the animals (ED50) together with its 95% confidence limits, is determined graphically.

[5] = rat, p.o. for racemic AAPs, MES

In the case of `CC(Nc1ccc(Cl)c(Cl)c1)c1ccncc1` (racemic) [N-(3,4-Dichlorophenyl)-1-(4-pyridyl)ethylamine, reference compound], the “P.I. (protective index, TD50/ED50)” value [1, 5] is reported as > 16.8 and the TD50 [2] is reported as > 500 mg/kg.
With `CCC(Nc1ccc(Cl)c(Cl)c1)c1ccncc1` (racemic) [N-(3,4-Dichlorophenyl)-1-(4-pyridyl)propylamine, reference compound] the “% protection (lowest and highest) during a 4-hour period” value ([1]; rat, p.o. for racemic AAPs, 30 mg/kg, 5 time points 0.25-4 hours, MES) was 0-50%.
In the case of `CC(Nc1cccc(Cl)c1)c1ccncc1` (racemic) [N-(3-Chlorophenyl)-1-(4-pyridyl)ethylamine, reference compound], the ED50 ([1]; p.o. for racemic AAPs) is reported as 34 mg/kg, the “P.I. (protective index, TD50/ED50)” value [1, 5] is reported as > 14.7 and the TD50 [2] is reported as > 500 mg/kg.
For `CC(Nc1ccc(Br)cc1)c1ccncc1` (racemic) [N-(4-Bromophenyl)-1-(4-pyridyl)ethylamine, reference compound], the ED50 ([1]; p.o. for racemic AAPs) was 20.9 mg/kg, the “P.I. (protective index, TD50/ED50)” value [1, 5] was > 23.9 and the TD50 [2] was > 500 mg/kg.
In the case of `CC(Nc1ccc(Cl)cc1)c1ccncc1` (racemic) [N-(4-Chlorophenyl)-1-(4-pyridyl)ethylamine, reference compound], the ED50 ([1]; p.o. for racemic AAPs) is reported as 22.9 mg/kg, the “P.I. (protective index, TD50/ED50)” value [1, 5] is reported as > 20.5 and the TD50 [2] is reported as > 470 mg/kg.
For `CCC(Nc1ccc(Cl)cc1)c1ccncc1` (racemic) [N-(4-Chlorophenyl)-1-(4-pyridyl)propylamine, reference compound], the ED50 ([1]; p.o. for racemic AAPs) was 25 mg/kg, the “P.I. (protective index, TD50/ED50)” value [1, 5] was > 20 and the TD50 [2] was > 500 mg/kg.
In the case of `CC(Nc1cccc(Cl)c1)c1ccncc1` (single isomer, unassigned; (+)) [Compound 3, (+) N-(3-Chlorophenyl)-1-(4-pyridyl)ethylamine], the “% protection (lowest and highest) during 4 hour period” value ([1]; rat, p.o., 30 mg/kg, 5 time points 0.25-4 hours, MES, listed as (2) (+) Enantiomer, 30 mg/kg) is reported as 25-75% and the “% protection” value ([3]; listed as (2) (+) Enantiomer) is reported as 67%.
In the case of `CC(Nc1ccc(Br)cc1)c1ccncc1` (single isomer, unassigned; (+)) [Compound 11, (+) N-(4-Bromophenyl)-1-(4-pyridyl)ethylamine], the ED50 ([1]; p.o.) is reported as 9.3 mg/kg, the “P.I. (protective index, TD50/ED50)” value ([1]; rat, p.o., MES) is reported as > 53.7 and the TD50 [2] is reported as > 500 mg/kg. For the same compound, the TD50 [4] was 133.9 mg/kg, the ED50 ([3]; listed as (6) (+) Enantiomer) was 34.7 mg/kg and the “P.I. (protective index, TD50/ED50)” value ([3]; listed as (6) (+) Enantiomer) was 3.9.
With `CC(Nc1cccc(Cl)c1)c1ccncc1` (single isomer, unassigned; (-)) [Compound 4, (-) N-(3-Chlorophenyl)-1-(4-pyridyl)ethylamine] the ED50 ([1]; p.o.) was 29.6 mg/kg, the “% protection (lowest and highest) during 4 hour period” value ([1]; rat, p.o., 30 mg/kg, 5 time points 0.25-4 hours, MES, listed as (2) (-) Enantiomer) was 50-100% and the “P.I. (protective index, TD50/ED50)” value ([1]; rat, p.o., MES) was > 2.1. The TD50 [2] was > 62.5 mg/kg and the “% protection” value ([3]; listed as (2) (-) Enantiomer) was 33%.
In the case of `CC(Nc1ccc(Cl)c(Cl)c1)c1ccncc1` (single isomer, unassigned; (-)) [Compound 6, (-) N-(3,4-Dichlorophenyl)-1-(4-pyridyl)ethylamine], the “% protection (lowest and highest) during 4 hour period” value ([1]; rat, p.o., 30 mg/kg, 5 time points 0.25-4 hours, MES, listed as (3) (-) Enantiomer) is reported as 25-75%, the TD50 [4] is reported as 279.2 mg/kg and the ED50 ([3]; listed as (3) (-) Enantiomer) is reported as 125.4 mg/kg. For the same compound, the “P.I. (protective index, TD50/ED50)” value ([3]; listed as (3) (-) Enantiomer) was 2.2.
In the case of `CCC(Nc1ccc(Cl)cc1)c1ccncc1` (single isomer, unassigned; (-)) [Compound 8, (-) N-(4-Chlorophenyl)-1-(4-pyridyl)propylamine], the “% protection (lowest and highest) during 4 hour period” value ([1]; rat, p.o., 30 mg/kg, 5 time points 0.25-4 hours, MES, listed as (4) (-) Enantiomer) is reported as 25-100%, the TD50 [4] is reported as 269.4 mg/kg and the ED50 ([3]; listed as (4) (-) Enantiomer) is reported as 118.9 mg/kg. The “P.I. (protective index, TD50/ED50)” value ([3]; listed as (4) (-) Enantiomer) was 2.3.
In the case of `CCC(Nc1ccc(Cl)c(Cl)c1)c1ccncc1` (single isomer, unassigned; (-)) [Compound 10, (-) N-(3,4-Dichlorophenyl)-1-(4-pyridyl)propylamine], the “% protection (lowest and highest) during 4 hour period” value ([1]; rat, p.o., 30 mg/kg, 5 time points 0.25-4 hours, MES, listed as (5) (-) Enantiomer) is reported as 25-100%, the TD50 [4] is reported as 275.2 mg/kg and the ED50 ([3]; listed as (5) (-) Enantiomer) is reported as 117.3 mg/kg. The “P.I. (protective index, TD50/ED50)” value ([3]; listed as (5) (-) Enantiomer) was 2.3.
In the case of `CC(Nc1ccc(Br)cc1)c1ccncc1` (single isomer, unassigned; (-)) [Compound 12, (-) N-(4-Bromophenyl)-1-(4-pyridyl)ethylamine], the “% protection (lowest and highest) during 4 hour period” value ([1]; rat, p.o., 30 mg/kg, 5 time points 0.25-4 hours, MES) is reported as 25-75%, the TD50 [4] is reported as 287.6 mg/kg and the ED50 ([3]; listed as (6) (-) Enantiomer) is reported as 85.5 mg/kg. For the same compound, the “P.I. (protective index, TD50/ED50)” value ([3]; listed as (6) (-) Enantiomer) was 3.4.
